Key:
[1] = test system: TGF-β-stimulated SMAD3 phosphorylation in BEAS-2B cells; assay: Cellular ALK5 potency assay, inhibition of TGF-β stimulated pSMAD3 formation in BEAS-2B cells; assay type: cell-based; settings: Homo sapiens; inhibition of TGF-β stimulated pSMAD3 formation, BEAS-2B cells; read-out: BEAS2B pIC50 (converted)
Procedure, shortened: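 BEAS-2B human lung epithelial cells, seeded overnight, were pre-treated with compound in HBSS/25 mM HEPES/1% BSA for 1 h at 37 °C, then stimulated with TGF-β (final 10 ng/mL) for 30 min. Lysates were assayed for pSMAD3 by AlphaLISA; pIC50 came from dose-dependent signal change versus TGF-β-stimulated untreated cells.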

[2] = biological target: T1, recombinant human ALK5 (TGF-βR1) protein (Homo sapiens, UniProt P36897); assay: Biochemical ALK5 (TGF-βR1) assay to measure pKi (LANCE Ultra ULight kinase assay); settings: apparent pKi from pIC50 by Cheng-Prusoff, read-out: ALK5 pKi (converted)
T1 construct: purchased Life Technologies PR9075A
T1 sequence (P36897 34-503): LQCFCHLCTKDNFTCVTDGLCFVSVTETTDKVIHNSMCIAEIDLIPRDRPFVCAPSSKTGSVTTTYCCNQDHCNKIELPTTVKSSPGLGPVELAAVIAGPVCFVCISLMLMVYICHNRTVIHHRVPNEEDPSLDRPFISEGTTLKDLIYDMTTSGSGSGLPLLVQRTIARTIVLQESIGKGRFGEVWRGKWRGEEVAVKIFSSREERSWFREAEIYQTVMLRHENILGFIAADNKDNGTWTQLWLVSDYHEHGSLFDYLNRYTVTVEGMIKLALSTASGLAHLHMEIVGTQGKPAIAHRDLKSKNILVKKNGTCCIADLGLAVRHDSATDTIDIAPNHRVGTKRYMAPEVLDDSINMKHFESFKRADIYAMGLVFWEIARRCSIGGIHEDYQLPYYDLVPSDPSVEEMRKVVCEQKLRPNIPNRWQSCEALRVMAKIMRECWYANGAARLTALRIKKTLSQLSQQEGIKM
Procedure, shortened: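 After a 60 min room-temperature preincubation of ALK5 with compound, phosphorylation proceeds 60 min at 37 °C on ATP addition (125 μM as 5× stock). Detection: Eu-labelled phospho-Thr1342 Topo IIα antibody in EDTA buffer, pH 7.0; emission 665 nm.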

| Ki [2] | SMILES | IC50 [1] |
| --- | --- | --- |
| 0.0398 to 0.316 nM | Cc1nc(-c2nc3ccccn3c2-c2ccc3ncc(-c4cnn5c4CNCC5)cc3n2)ccc1F [Compound 89, 2-[2-(5-fluoro-6-methyl-2-pyridyl)imidazo[1,2-a]pyridin-3-yl]-7-(4,5,6,7-tetrahydropyrazolo[1,5-a]pyrazin-3-yl)-1,5-naphthyridine] | 25.1 to 158 nM |
| 0.398 to 3.16 nM | Cc1cccc(-c2n[nH]cc2-c2ccc3ncc(NCC(=O)N4CCOCC4)cc3n2)n1 [Compound 90, 2-[[6-[3-(6-methyl-2-pyridyl)-1H-pyrazol-4-yl]-1,5-naphthyridin-3-yl]amino]-1-morpholino-ethanone] | 25.1 to 158 nM |
| 0.0398 to 0.316 nM | Cc1nc(-c2[nH]cnc2-c2ccc3ncc(-c4cn5c(n4)CNCC5)cc3n2)ccc1F [Compound 91, 2-[5-(5-fluoro-6-methyl-2-pyridyl)-1H-imidazol-4-yl]-7-(5,6,7,8-tetrahydroimidazo[1,2-a]pyrazin-2-yl)-1,5-naphthyridine] | 25.1 to 158 nM |
| 0.0398 to 0.316 nM | CCc1cccc(-c2n[nH]cc2-c2ccc3ncc(-c4ccn(CCNC)n4)cc3n2)n1 [Compound 92, 2-(3-(6-(3-(6-ethylpyridin-2-yl)-1H-pyrazol-4-yl)-1,5-naphthyridin-3-yl)-1H-pyrazol-1-yl)-N-methylethan-1-amine] | 25.1 to 158 nM |
| < 0.0316 nM | Cc1nc(-c2n[nH]cc2-c2ccc3ncc(N4CCC(N5CCN(C)CC5)CC4)cc3c2)ccc1F [Compound 93, 6-[3-(5-fluoro-6-methyl-2-pyridyl)-1H-pyrazol-4-yl]-3-[4-(4-methylpiperazin-1-yl)-1-piperidyl]quinoline] | 25.1 to 158 nM |
| 0.0398 to 0.316 nM | CNC1CN(c2cnc3ccc(-c4c[nH]nc4-c4cccc(C)n4)nc3c2)C1 [Compound 94, N-methyl-1-[6-[3-(6-methyl-2-pyridyl)-1H-pyrazol-4-yl]-1,5-naphthyridin-3-yl]azetidin-3-amine] | 25.1 to 158 nM |
| 0.0398 to 0.316 nM | Cc1cccc(-c2nc3ccccn3c2-c2ccc3ncc(N4CCC(N5CCN(C)CC5)CC4)cc3c2)n1 [Compound 95, 3-[4-(4-methylpiperazin-1-yl)-1-piperidyl]-6-[2-(6-methyl-2-pyridyl)imidazo[1,2-a]pyridin-3-yl]quinoline] | 25.1 to 158 nM |
| < 0.0316 nM | CNC1(Cn2cc(-c3cnc4ccc(-c5c[nH]nc5-c5ccc(F)c(C)n5)nc4c3)cn2)CC1 [Compound 97, 1-[[4-[6-[3-(5-fluoro-6-methyl-2-pyridyl)-1H-pyrazol-4-yl]-1,5-naphthyridin-3-yl]pyrazol-1-yl]methyl]-N-methyl-cyclopropanamine] | < 20 nM |
| 0.0398 to 0.316 nM | Cc1cccc(-c2[nH]cnc2-c2ccc3ncc(C4=CCC(NC(=O)CSC5CCOC5=O)CC4)cc3c2)n1 (centres unmarked) [Compound 98, N-(4-(6-(5-(6-methylpyridin-2-yl)-1H-imidazol-4-yl)quinolin-3-yl)cyclohex-3-en-1-yl)-2-((2-oxotetrahydrofuran-3-yl)thio)acetamide] | 25.1 to 158 nM |
| 0.0398 to 0.316 nM | Cc1cccc(-c2n[nH]cc2-c2ccc3ncc(NC(=O)CCCN4CCN(C(C)C)CC4)cc3n2)n1 [Compound 99, 4-(4-isopropylpiperazin-1-yl)-N-[6-[3-(6-methyl-2-pyridyl)-1H-pyrazol-4-yl]-1,5-naphthyridin-3-yl]butanamide] | 25.1 to 158 nM |
| 0.398 to 3.16 nM | CNCc1ccnc2ccc(-c3nc[nH]c3-c3cccc(C)n3)cc12 [Compound 100, N-methyl-1-[6-[5-(6-methyl-2-pyridyl)-1H-imidazol-4-yl]-4-quinolyl]methanamine] | 25.1 to 158 nM |
| < 0.0316 nM | Cc1cccc(-c2n[nH]cc2-c2ccc3ncc(-c4cn(Cc5c[nH]cn5)nn4)cc3n2)n1 [Compound 101, 7-[1-(1H-imidazol-4-ylmethyl)triazol-4-yl]-2-[3-(6-methyl-2-pyridyl)-1H-pyrazol-4-yl]-1,5-naphthyridine] | 200 to 1260 nM |
| 0.0398 to 0.316 nM | Cc1cccc(-c2n[nH]cc2-c2ccc3ncc(-c4nnc5n4CCN5)cc3n2)n1 [Compound 102, 7-(6,7-dihydro-5H-imidazo[2,1-c][1,2,4]triazol-3-yl)-2-[3-(6-methyl-2-pyridyl)-1H-pyrazol-4-yl]-1,5-naphthyridine] | 1580 to 10000 nM |
| 0.0398 to 0.316 nM | Cc1cccc(-c2n[nH]cc2-c2ccc3ncc(N(C)CCN4CCOCC4)cc3n2)n1 [Compound 103, N-methyl-6-[3-(6-methyl-2-pyridyl)-1H-pyrazol-4-yl]-N-(2-morpholinoethyl)-1,5-naphthyridin-3-amine] | 25.1 to 158 nM |
| 0.0398 to 0.316 nM | Cc1cccc(-c2[nH]cnc2-c2ccc3ncc(NCCN4CCN(C(C)C)CC4)cc3n2)n1 [Compound 104, N-(2-(4-isopropylpiperazin-1-yl)ethyl)-6-(5-(6-methylpyridin-2-yl)-1H-imidazol-4-yl)-1,5-naphthyridin-3-amine] | 25.1 to 158 nM |
| 0.0398 to 0.316 nM | COc1n[nH]c(-c2cccc(C)n2)c1-c1ccc2ncc(-c3cccnc3)cc2n1 [Compound 105, 2-(5-methoxy-3-(6-methylpyridin-2-yl)-1H-pyrazol-4-yl)-7-(pyridin-3-yl)-1,5-naphthyridine] | 25.1 to 158 nM |
| 0.0398 to 0.316 nM | CNc1cnc2ccc(-c3c[nH]nc3-c3cccc(C)n3)nc2c1 [Compound 106, N-methyl-6-[3-(6-methyl-2-pyridyl)-1H-pyrazol-4-yl]-1,5-naphthyridin-3-amine] | < 20 nM |
| 0.0398 to 0.316 nM | Cc1nc(-c2n[nH]cc2-c2ccc3ncc(-c4ncn5c4CNCC5)cc3n2)ccc1F [Compound 107, 2-[3-(5-fluoro-6-methyl-2-pyridyl)-1H-pyrazol-4-yl]-7-(5,6,7,8-tetrahydroimidazo[1,5-a]pyrazin-1-yl)-1,5-naphthyridine] | 25.1 to 158 nM |
| 0.0398 to 0.316 nM | CNCCn1ccc(-c2cnc3ccc(-c4c[nH]nc4-c4ccc(F)c(C)n4)nc3c2)n1 [Compound 108, 2-[3-[6-[3-(5-fluoro-6-methyl-2-pyridyl)-1H-pyrazol-4-yl]-1,5-naphthyridin-3-yl]pyrazol-1-yl]-N-methyl-ethanamine] | 25.1 to 158 nM |
| 0.0398 to 0.316 nM | Cc1cccc(-c2n[nH]cc2-c2ccc3ncc(C(=O)NCCCN4CCOCC4)cc3n2)n1 [Compound 109, 6-[3-(6-methyl-2-pyridyl)-1H-pyrazol-4-yl]-N-(3-morpholinopropyl)-1,5-naphthyridine-3-carboxamide] | 25.1 to 158 nM |
| 0.0398 to 0.316 nM | Cc1cccc(-c2[nH]cnc2-c2ccc3ncc(-c4ccc(C(=O)OC5CCNCC5)nc4)cc3c2)n1 [Compound 110, piperidin-4-yl 5-(6-(5-(6-methylpyridin-2-yl)-1H-imidazol-4-yl)quinolin-3-yl)picolinate] | 25.1 to 158 nM |
| 0.0398 to 0.316 nM | Cc1cccc(-c2n[nH]cc2-c2ccc3ncc(-c4cn(-c5ccccc5)nn4)cc3n2)n1 [Compound 111, 2-[3-(6-methyl-2-pyridyl)-1H-pyrazol-4-yl]-7-(1-phenyltriazol-4-yl)-1,5-naphthyridine] | < 20 nM |
| 0.0398 to 0.316 nM | COc1[nH]nc(-c2cccc(C)n2)c1-c1ccc2ncc(N3CCC(N4CCN(C)CC4)CC3)cc2n1 [Compound 112, 2-[5-methoxy-3-(6-methyl-2-pyridyl)-1H-pyrazol-4-yl]-7-[4-(4-methylpiperazin-1-yl)-1-piperidyl]-1,5-naphthyridine] | 200 to 1260 nM |
| 0.0398 to 0.316 nM | Cc1cccc(-c2n[nH]cc2-c2ccc3ncc(NC4CCNCC4)cc3n2)n1 [Compound 113, 6-[3-(6-methyl-2-pyridyl)-1H-pyrazol-4-yl]-N-(4-piperidyl)-1,5-naphthyridin-3-amine] | 200 to 1260 nM |
| < 0.0316 nM | Cc1nc(-c2n[nH]cc2-c2ccc3ncc(N4CCC(N5CCCC5)CC4)cc3n2)ccc1F [Compound 114, 2-[3-(5-fluoro-6-methyl-2-pyridyl)-1H-pyrazol-4-yl]-7-(4-pyrrolidin-1-yl-1-piperidyl)-1,5-naphthyridine] | 25.1 to 158 nM |
| 0.0398 to 0.316 nM | Cc1cccc(-c2nn3c(c2-c2ccc4ncc(-c5cn[nH]c5)cc4n2)CNCC3)n1 [Compound 115, 2-(2-(6-Methylpyridin-2-yl)-4,5,6,7-tetrahydropyrazolo[1,5-a]pyrazin-3-yl)-7-(1H-pyrazol-4-yl)-1,5-naphthyridine] | 25.1 to 158 nM |
| 0.0398 to 0.316 nM | Cc1cccc(-c2[nH]cnc2-c2ccc3ncc(NCCC4CNC4)cc3c2)n1 [Compound 116, N-[2-(azetidin-3-yl)ethyl]-6-[5-(6-methyl-2-pyridyl)-1H-imidazol-4-yl]quinolin-3-amine] | 25.1 to 158 nM |
| 0.398 to 3.16 nM | Cc1cccc(-c2[nH]cnc2-c2ccc3ncc(C4=CC(C)(C)NC(C)(C)C4)cc3c2)n1 [Compound 117, 6-[5-(6-methyl-2-pyridyl)-1H-imidazol-4-yl]-3-(2,2,6,6-tetramethyl-1,3-dihydropyridin-4-yl)quinoline] | 25.1 to 158 nM |
